Reference: patent US20240316067A1, “METHODS OF DECREASING HEPARAN SULFATE EXPRESSION USING EXT1 INHIBITORS” (priority 2023, published 2024)

What was measured:
Assay type in all cases: cell-based
[1] = test system: HS3ST1; test: HS3ST1 reporter cell line, HTS of FDA-approved drug library (EC-50, CCK-8); conditions: a listed drug is a confirmed inhibitor
Description: FIGS. 13A-13C show EC-50 and CCK-8 experiments on HS3ST1 using bortezomib.
FIGS. 14A-14C show EC-50 and CCK-8 experiments on HS3ST1 using zinc pyrithione.
FIGS. 15A-15B show EC-50 and CCK-8 experiments on HS3ST1 using artesunate.
(§1) Using a stable cell line with promoter luciferase reporter of the HS-biosynthetic gene EXT1, the EXT1 and other HS-biosynthetic gene reporter cell lines were screened with an FDA-approved drug library. (FIG. 1; FIG. 2)

[2] = test system: EXT1; test: EXT1 promoter luciferase reporter stable cell line, HTS of FDA-approved drug library (EC-50, CCK-8); conditions: for confirmed candidates when screened with respect to EXT1: EC-50 and CCK-8, 10 μL; for Inhibition Candidate, confirmation at lower concentration: EXT1 cell line, 2nd confirmatory screen, a listed drug is a confirmed inhibitor
Description: as §1

[3] = test system: HS3ST4; test: HS3ST4 reporter cell line, HTS of FDA-approved drug library; conditions: a listed drug is a confirmed inhibitor
Description: as §1

Compound: C[C@H]1[C@H](OC(=O)CCC(=O)O)O[C@@H]2O[C@@]3(C)CC[C@H]4[C@H](C)CC[C@@H]1[C@@]24OO3 [Artesunate]
- Inhibition Candidate, confirmation at lower concentration [1]: A1- Artesunate

Compound: CC(C)C[C@H](NC(=O)[C@H](Cc1ccccc1)NC(=O)c1cnccn1)B(O)O [Bortezomib]
- Inhibition Candidate, confirmation at lower concentration [1]: B3- Bortezomib

Compound: C=C1/C(=C\C=C2/CCC[C@]3(C)[C@@H]([C@H](C)CCCC(C)(C)O)CC[C@@H]23)C[C@@H](O)C[C@@H]1O [Calcitriol, 1, 25-dihydroxycholecalciferol]
- confirmed candidates when screened with respect to EXT1 [2]: confirmed candidates
- Inhibition Candidate, confirmation at lower concentration [2]: B2- Calcitriol

Compound: COc1ccc(/C=C\c2cc(OC)c(OC)c(OC)c2)cc1OP(=O)(O)O [Frosbretabullin, Fosbretabulin]
- Inhibition Candidate, confirmation at lower concentration [3]: D5- Frosbretabullin

Compound: O=C(Nc1ccc([N+](=O)[O-])cc1Cl)c1cc(Cl)ccc1O [Niclosamide]
- Inhibition Candidate, confirmation at lower concentration [3]: A6- Niclosamide

Compound: C=C1CC[C@H](O)C/C1=C/C=C1\CCC[C@]2(C)[C@@H]([C@H](C)CCCC(C)C)CC[C@@H]12 [Vitamin D3, cholecalciferol]
- confirmed candidates when screened with respect to EXT1 [2]: confirmed candidates
- Inhibition Candidate, confirmation at lower concentration [2]: D5- Vitamin D3
- Inhibition Candidate, confirmation at lower concentration ([2]; listed as vitamin D3): confirmed to inhibit at low doses

Compound: Zinc pyrithione
- Inhibition Candidate, confirmation at lower concentration [1]: D6- Zinc Pyrithione
